Results from the supplement of paper PMC10307832.

Legend:
Test in all cases: relative viability (nuclei count vs DMSO), 5 days (fraction); higher = more cells survive
[1] = compound: CC(=O)Nc1cccc(-n2c(=O)n(C3CC3)c(=O)c3c(Nc4ccc(I)cc4F)n(C)c(=O)c(C)c32)c1 [Trametinib] + NC(=O)Nc1cc(-c2cccc(F)c2)sc1C(=O)N[C@H]1CCCNC1 [AZD7762] (partner 0.2 µM)
Outline: (§1)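 Relative viability divides the nuclei count in treated wells by that in vehicle wells. Lung cancer cell lines were seeded in 1536-well plates, dosed by pin tool the next day, and fixed and stained after 5 days in one step with final 0.05% Triton X-100, 1% formaldehyde and 1 ug/ml Hoechst. Dosing was a single drug or a fixed anchor-drug dose plus five library-drug doses (not always all listed) in √10 steps, and values are medians of duplicate plates imaged at 4×.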

[2] = compound: CN1C=C(C2=CC=CC=C21)/C=C\3/C4=C(C=CC=N4)NC3=O + CC(C)C[C@H](NC(=O)[C@H](Cc1ccccc1)NC(=O)c1cnccn1)B(O)O [Bortezomib] (partner 0.002 µM)
Outline: as §1

[3] = compound: CN1C=C(C2=CC=CC=C21)/C=C\3/C4=C(C=CC=N4)NC3=O + CS(=O)(=O)CCNCc1ccc(-c2ccc3ncnc(Nc4ccc(OCc5cccc(F)c5)c(Cl)c4)c3c2)o1 [Lapatinib] (partner 2 µM)
Outline: as §1

[4] = compound: CC(=O)Nc1cccc(-n2c(=O)n(C3CC3)c(=O)c3c(Nc4ccc(I)cc4F)n(C)c(=O)c(C)c32)c1 [Trametinib] + Cc1cc(Nc2cc(N3CCN(C)CC3)nc(Sc3ccc(NC(=O)C4CC4)cc3)n2)n[nH]1 [Tozasertib] (partner 0.1 µM)
Outline: as §1

Row | Cell Line | relative viability ([1]; first compound 0.0025 µM) | relative viability ([1]; first compound 0.007906 µM) | relative viability ([1]; first compound 0.025 µM) | relative viability ([1]; first compound 0.07906 µM) | relative viability ([1]; first compound 0.25 µM) | relative viability ([2]; first compound 0.02 µM) | relative viability ([2]; first compound 0.06325 µM) | relative viability ([2]; first compound 0.2 µM) | relative viability ([2]; first compound 0.6325 µM) | relative viability ([2]; first compound 2 µM) | relative viability ([3]; first compound 0.02 µM) | relative viability ([3]; first compound 0.06325 µM) | relative viability ([3]; first compound 0.2 µM) | relative viability ([3]; first compound 0.6325 µM) | relative viability ([3]; first compound 2 µM) | relative viability ([4]; first compound 0.0025 µM) | relative viability ([4]; first compound 0.007906 µM) | relative viability ([4]; first compound 0.025 µM) | relative viability ([4]; first compound 0.07906 µM) | relative viability ([4]; first compound 0.25 µM)
1 | BEN | 0.703 | 0.652 | 0.412 | 0.525 | 0.635 | 0.82 | 0.557 | 0.64 | 0.593 | 0.917 | 0.685 | 0.718 | 0.559 | 0.585 | 0.785 | 0.461 | 0.497 | 0.458 | 0.602 | 0.476
2 | NCI-H647 | 0.543 | 0.3 | 0.262 | 0.174 | 0.165 | 1.28 | 0.793 | 0.712 | 0.709 | 0.958 | 1.06 | 0.995 | 0.679 | 0.949 | 1.27 | 0.188 | 0.216 | 0.261 | 0.216 | 0.136
3 | PC-14 | 0.354 | 0.274 | 0.224 | 0.193 | 0.203 | 0.826 | 0.831 | 0.981 | 0.898 | 0.991 | 0.262 | 0.289 | 0.256 | 0.275 | 0.315 | 0.508 | 0.527 | 0.46 | 0.364 | 0.156
4 | HCC-78 | 0.661 | 0.484 | 0.393 | 0.427 | 0.46 | 0.41 | 0.499 | 0.519 | 0.432 | 0.469 | 0.965 | 0.288 | 0.46 | 0.53 | 0.689 | 0.426 | 0.416 | 0.38 | 0.452 | 0.36
5 | NCI-H1666 | 0.726 | 0.735 | 0.669 | 0.637 | 0.665 | 1 | 0.77 | 0.542 | 0.692 | 0.709 | 0.781 | 0.606 | 0.512 | 0.599 | 0.532 | 0.589 | 0.546 | 0.602 | 0.541 | 0.475
6 | LU99A | 0.365 | 0.353 | 0.2 | 0.214 | 0.179 | 1.16 | 1.09 | 1.09 | 1.13 | 0.964 | 0.986 | 0.805 | 0.9 | 0.964 | 0.85 | 0.234 | 0.272 | 0.232 | 0.244 | 0.232
7 | NCI-H596 | 0.942 | 1.05 | 0.921 | 0.756 | 0.653 | 0.838 | 1.17 | 1.03 | 1.07 | 1.02 | 1.05 | 1.03 | 0.889 | 1.02 | 0.99 | 0.867 | 0.733 | 0.602 | 0.784 | 0.464
8 | 201T | 0.632 | 0.607 | 0.473 | 0.592 | 0.557 | 1.02 | 1.18 | 1.07 | 1.16 | 1.09 | 0.993 | 1.05 | 1.04 | 1.06 | 1.04 | 0.985 | 0.835 | 0.795 | 0.798 | 0.653
9 | HCC-15 | 1.29 | 1 | 1.14 | 0.928 | 0.407 | 0.972 | 0.939 | 1.09 | 1.09 | 1.18 | 0.827 | 0.71 | 0.903 | 0.886 | 0.932 | 0.345 | 0.234 | 0.161 | 0.148 | 0.15
